Test results reported in patent US10968190B2, “Processes for preparing oxathiazin-like compounds” (GEISTLICH PHARMA AG, priority 2014, dated 2021).
Converted amounts (≈) assume the structure as drawn. Like-named read-outs stand apart in the source and are kept apart here.

Tests used:
[1] = system: cancers identified herein; assay: Administration to patients having cancers (Example 5); format: in vivo; details: Example 5, present tense
Description: Each of these compounds is administered with Vitamin D3, a derivative, metabolite or analog thereof and the combination is found to increase the anti-tumor effects of the compounds.

[2] = system: MiaPaca2 tumor; assay: MiaPaca2 subcutaneous tumor model in nude mice; format: in vivo, nude mice (NMRI-Foxn1 nu/nu); details: 500 mg/kg i.p. on alternating days
[3] = Toxicity in mice during the tumor study; details: 500 mg/kg i.p. on alternating days
Description: 1×10^7 tumor cells (PancTu-I and MiaPaca 2) were injected subcutaneously into the flank.
Tumors were grown to a size of 200 mm^3 before the treatment was started. Mice were treated on alternating days with 500 mg/kg*body weight (BW).

[4] = system: human glioblastoma bulk cells; details: Rodak et al., J. Neurosurg., 102, 1055-68, 2005; cited from earlier work
[5] = system: multicellular pancreatic tumor (Panc Tul or BxPC-3) spheroids; assay: Pancreatic stem cell-like multicellular spheroid toxicity assay; format: cell-based; details: taurolidine 500 μM, compound 2250 1000 μM, 48 hours
From the text: Multicellular spheroids are composed of tumor cells growing in a 3-dimensional structure stimulating the growth, micro-environmental conditions and stem cell-like characteristics of real tumors. The multicellular tumor spheroid (MCTS) model compensates for many of the deficiencies seen in monolayer cultures. Spheroids on the scale of 200-500 μm develop chemical gradients of oxygen, nutrients, and catabolites, while having morphological and functional features similar to tumors. Therefore, assays utilizing the MCTS model allow for the assessment of drug penetration and are more predictive of in vivo success compared with monolayer cultures. MCTS assays are a tumor model system of intermediate complexity between standard monolayer and tumors in vivo.
Pancreatic tumor cells (Panc Tu-1, BxPC-3, Mia Paca-2, ASPC1) and pancreatic primary tumor cells (Bo80) were seeded in ultra-low adhesion plates in special stem cell media.
Pancreatic tumor cells (ASPC1, Mia Paca-2, Panc Tul, BxPC-3) and pancreatic primary tumor cells (Bo80) were raised in monolayer culture before seeding in ultra low adhesion plates under conditions of special stem cell media to form multicellular spheroids and passed through a cell strainer to exclude aggregates. […]

[6] = system: cancer stem cells (CSC) derived from four glioblastoma patients; assay: Cytotoxicity in cancer stem cells from glioblastoma patients; format: cell-based, human; details: for Cytotoxicity EC50, Mean ± SD: mean of CSCs from four glioblastoma patients
Description: Tissue samples from high grade gliomas WHO grade IV from newly diagnosed patients (medium age of 54±10 years) were minced mechanically, digested enzymatically and the dissociated cells were filtered. The isolated tumor cells were cultured as bulk cells. Cancer Stem Cells (CSCs) were isolated by the formation of neurospheres under neurosphere conditions (using neurobasal medium) from the murine SMA 560 glioma cell line or from freshly isolated human glioblastoma cells.
The number of remaining adherent cells were stained (crystal violet or Alamar Blue) and quantified by absorbance measurements (540 nm). Cell survival was expressed as the percentage of cells surviving relative to the number of cells surviving in untreated control cultures. The results are given as % killing rate or EC50 as the dose required for half-maximal cytotoxicity. Results
CSCs were isolated from glioblastoma tissue resected from four patients. […].

[7] = system: pancreatic primary tumors (Bo 73); assay: Xenograft model of pancreatic primary tumors Bo 73; format: in vivo; details: Bo 73, observed for 15 days; differences not statistically relevant
From the text: (§1) However, the differences in tumor volumes were not statistically relevant, likely due to the short duration of the study and the slow growth rate of the tumors.

[8] = system: PancTu I tumor; assay: PancTu I subcutaneous tumor model in nude mice; format: in vivo, nude mice (NMRI-Foxn1 nu/nu); details: 500 mg/kg i.p. on alternating days
[9] = system: human glioma cell line LN-229; assay: Cytotoxicity assay in LN-229 cells (crystal violet); format: cell-based; details: for OD (absorbance at 540 nm; high values = high cell viability): 24 h
Description: Cell lines: The human glioma cell line LN-229 was used as described previously (Rodak et al. 2005) as well as the human colon adenocarcinoma cell line SW480.
Cytotoxicity assay: Dissociated LN-229 cells were seeded into 96-well plates at a density of 10^4 cells per well in 100 μl of culture medium. […] Triplicate cultures were prepared for each sample. After 24 h of incubation at […], the remaining adherent viable cells were stained using crystal violet as described (Rodack et al. 2005). Cell viability was determined by measuring the absorbancy at 540 nm. The results are expressed as killing rate given by the difference between 100% of cells and percentage of cells surviving. EC50 values correspond to the concentration inducing 50% cell death.

[10] = Half-life in human fresh blood in vitro by GC; format: in vitro ADME; details: same test, human blood
[11] = system: pancreatic primary tumors (Bo 70); assay: Xenograft model of pancreatic primary tumors Bo 70; format: in vivo; details: Bo 70, observed for 23 days
From the text: as §1

[12] = system: murine SMA560 glioma cancer stem cells (CSC); details: for sensitivity of CSCs versus corresponding glioma bulk cells, based on EC50: mouse SMA 560 CSCs vs bulk cells
From the text: (§2) The mouse SMA560 glioma cell line was used to provide tumor bulk cells and CSCs. […] Mouse CSCs were generated from the SMA560 glioma cell line and cultured for 7 days.

[13] = system: tumor stem cells; assay: Killing of tumor stem cells in tissue culture in vitro; format: cell-based
[14] = system: murine SMA 560 bulk glioma cells; details: SMA 560 bulk cells, 24 h and 48 h incubation
From the text: as §2

[15] = Portnow et al., Clin Cancer Res 15, 7092-7098, 2009; cited from earlier work

O=S1(=O)CCN(CN2COCCS2(=O)=O)CN1 [B1]
effectiveness in treating cancers in patients [1]: effective in treating such cancers | safety for use in patients [1]: safe for use in patients

O=S1(=O)CCOCN1CN1COCCS1(=O)=O [compound 2245]
effectiveness in treating cancers in patients [1]: effective in treating such cancers | safety for use in patients [1]: safe for use in patients

O=S1(=O)CCN(CN2CCS(=O)(=O)NC2)CN1 [taurolidine]
decrease of MiaPaca2 tumor volume compared to control [2]: about 2 fold | toxic effect on the mice during the study [3]: no toxic effect | EC50 [4]: ~50 µg/mL (≈ 176 µM) | effect on pancreatic stem cell like multicellular spheroid cultures [5]: antineoplastic effect | EC50 ([6]; Homo sapiens, 24 h, read-out: Cytotoxicity EC50 (μg/ml) 24 h, CSC GBM #4, 24 h): 12.5 µg/mL | EC50 ([6]; Homo sapiens, 24 h, read-out: Cytotoxicity EC50 (μg/ml) 24 h, CSC GBM #5, 24 h): 14 µg/mL | EC50 ([6]; Homo sapiens, 24 h, read-out: Cytotoxicity EC50, Mean ± SD, mean of CSCs from four glioblastoma patients, 24 h): 13 ± 2 µg/mL | EC50 ([6]; Homo sapiens, GBM3, 24 h, read-out: Cytotoxicity EC50 (μg/ml) 24 h, CSC GBM #3, 24 h): 15 µg/mL | EC50 ([6]; Homo sapiens, GBM6, 24 h, read-out: Cytotoxicity EC50 (μg/ml) 24 h, CSC GBM #6, 24 h): 10 µg/mL | relative tumor volume compared to control [7]: slightly reduced relative tumor volume compared to control | decrease of PancTu I tumor volume compared to control [8]: about 3 fold | OD (absorbance at 540 nm; high values = high cell viability) ([9]; 4 μg/ml): 1.530 | OD (absorbance at 540 nm; high values = high cell viability) ([9]; 8 μg/ml): 1.478 | OD (absorbance at 540 nm; high values = high cell viability) ([9]; 15.5 μg/ml): 1.434 | OD (absorbance at 540 nm; high values = high cell viability) ([9]; 31 μg/ml): 1.132 | OD (absorbance at 540 nm; high values = high cell viability) ([9]; 62.5 μg/ml): 0.317 | OD (absorbance at 540 nm; high values = high cell viability) ([9]; 250 μg/ml): 0.165 | OD (absorbance at 540 nm; high values = high cell viability) ([9]; 500 μg/ml): 0.098 | OD (absorbance at 540 nm; high values = high cell viability) ([9]; 1000 μg/ml): 0.109 | EC50 ([9]; Homo sapiens, LN-229, 24 h, LN-229 cells, 24 h incubation, read-out: EC50 (concentration inducing 50% cell death)): 45 µg/mL (≈ 158 µM) | EC50 (concentration inducing 50% cell death) ([9]; LN-229 cells, 24 h incubation): 50 µg/mL (≈ 176 µM) | half-life [10]: ~30 min | tumor volume compared to control [11]: significantly reduce tumor volume compared to control | sensitivity of CSCs versus corresponding glioma bulk cells, based on EC50 [12]: about 3 fold | concentration effective at killing tumor stem cells [13]: 0.01 µg/mL

O=S1(=O)CCOCO1 [A3]
effectiveness in treating cancers in patients [1]: effective in treating such cancers | safety for use in patients [1]: safe for use in patients

O=S1(=O)CCN(CN2CCS(=O)(=O)OC2)CO1 [B3]
effectiveness in treating cancers in patients [1]: effective in treating such cancers | safety for use in patients [1]: safe for use in patients

O=S1(=O)CCNCN1 [taurultam]
Cytotoxicity EC50 [14]: 19.3 µg/mL | EC50 [4]: ~50 µg/mL (≈ 367 µM) | Cytotoxicity EC50 (μg/ml) 24 h ([6]; CSC GBM #3, 24 h): 10.5 µg/mL | Cytotoxicity EC50 (μg/ml) 24 h ([6]; CSC GBM #4, 24 h): 12.5 µg/mL | Cytotoxicity EC50 (μg/ml) 24 h ([6]; CSC GBM #5, 24 h): 11 µg/mL | Cytotoxicity EC50 (μg/ml) 24 h ([6]; CSC GBM #6, 24 h): 9 µg/mL | Cytotoxicity EC50, Mean ± SD ([6]; 24 h): 11 ± 1.4 µg/mL | Cytotoxicity EC50, Mean ± SD ([6]; 24 h, listed as Taurultam): 11 ± 1.4 µg/mL | sensitivity of CSCs versus corresponding glioma bulk cells, based on EC50 [12]: ~2 fold | Cytotoxicity EC50 ([12]; murine CSCs cultured 7 days, 24 hours treatment): 10 µg/mL

O=S1(=O)CCN(CN2CCS(=O)(=O)OC2)CN1 [B2]
effectiveness in treating cancers in patients [1]: effective in treating such cancers | safety for use in patients [1]: safe for use in patients

O=S1(=O)CCNCO1 [A1]
effectiveness in treating cancers in patients [1]: effective in treating such cancers | safety for use in patients [1]: safe for use in patients

Cn1nnc2c(C(N)=O)ncn2c1=O [temozolamide]
Cytotoxicity EC50 (μg/ml) 24 h ([6]; CSC GBM #3, 24 h): 84.4 µg/mL | EC50 ([6]; CSC GBM #3, 24 h, read-out: Cytotoxicity EC50 24 h): 435 µM | Cytotoxicity EC50 (μg/ml) 24 h ([6]; CSC GBM #4, 24 h): 97 µg/mL | EC50 ([6]; CSC GBM #4, 24 h, read-out: Cytotoxicity EC50 24 h): 500 µM | Cytotoxicity EC50 (μg/ml) 24 h ([6]; CSC GBM #5, 24 h): 48.5 µg/mL | EC50 ([6]; CSC GBM #5, 24 h, read-out: Cytotoxicity EC50 24 h): 250 µM | Cytotoxicity EC50 (μg/ml) 24 h ([6]; CSC GBM #6, 24 h): 44 µg/mL | EC50 ([6]; CSC GBM #6, 24 h, read-out: Cytotoxicity EC50 24 h): 230 µM | Cytotoxicity EC50, Mean ± SD ([6]; 24 h): 68.5 ± 26 µg/mL | peak plasma levels measured in patients [15]: 13.7 µg/mL

CN1COCCS1(=O)=O [compound 2255]
effectiveness in treating cancers in patients [1]: effective in treating such cancers | safety for use in patients [1]: safe for use in patients
